Our source for the IC50 values is US20260062443A1 (ALEXION PHARMACEUTICALS, INC., priority 2022, published 2026).

A word on the IC50: it is the point on the concentration scale where inhibition reaches its midpoint.

The target of the assay is T1, Human complement C1s enzyme (Homo sapiens, UniProt P09871).
T1 sequence (P09871 438-688 limits assumed): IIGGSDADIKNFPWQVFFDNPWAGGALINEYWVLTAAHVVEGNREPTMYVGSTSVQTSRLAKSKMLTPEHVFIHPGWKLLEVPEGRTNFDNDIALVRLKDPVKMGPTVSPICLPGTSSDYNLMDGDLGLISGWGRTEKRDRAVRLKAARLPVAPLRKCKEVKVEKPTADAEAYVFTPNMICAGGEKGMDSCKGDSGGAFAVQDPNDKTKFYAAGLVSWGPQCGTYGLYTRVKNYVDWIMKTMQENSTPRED
T1 sequence (P09871 16-437 partner limits assumed): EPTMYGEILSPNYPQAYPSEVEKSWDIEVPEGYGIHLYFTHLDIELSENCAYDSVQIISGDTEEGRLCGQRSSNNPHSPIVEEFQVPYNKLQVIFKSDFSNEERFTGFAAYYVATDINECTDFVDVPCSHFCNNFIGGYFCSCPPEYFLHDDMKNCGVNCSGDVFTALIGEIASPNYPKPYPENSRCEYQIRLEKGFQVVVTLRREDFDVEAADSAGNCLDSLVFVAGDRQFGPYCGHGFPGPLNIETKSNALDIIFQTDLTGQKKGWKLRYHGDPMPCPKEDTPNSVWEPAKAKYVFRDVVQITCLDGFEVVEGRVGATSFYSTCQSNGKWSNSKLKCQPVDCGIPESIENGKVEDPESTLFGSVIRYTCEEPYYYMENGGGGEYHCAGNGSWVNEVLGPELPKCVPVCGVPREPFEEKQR
The assay can be described thus: Human C1s enzyme assay. The class given is biochemical. The conditions noted are these: human complement C1s enzyme 1.16 nM, substrate Z-L-Lys-SBzl 100 μM, 5 min preincubation; read-out: IC50 (Stars), C1s Inhibiting Activity. On the procedure: Other standard complement assays are also available.
Human complement C1s enzyme (purified from human serum, Complement Technology, Inc.) at 1.16 nM final concentration was incubated with test compound at various concentrations for 5 min at room temperature in 50 mM Tris, 1 M NaCl, pH 7.5. A synthetic substrate Z-L-Lys-SBzl and DTNB (Ellman's reagent) were added to final concentrations of 100 μM each. Absorbance at 405 nm (A405) was recorded at 30 second intervals for 30 min using a microplate spectrophotometer. IC50 values were calculated by nonlinear regression of complement C1 s reaction rates as a function of test compound concentration.
ND indicates a compound for which the IC50 value is not determined.
As for `O=C(NCC(=O)N1C[C@H](OC(F)F)C[C@H]1C(=O)NCc1ccc2cc[nH]c2c1)c1ccc2c(c1)Oc1ccccc1S2` [Compound 196, (2S,4R)-N-((1H-indol-6-yl)methyl)-4-(difluoromethoxy)-1-((phenoxathiine-3-carbonyl)glycyl)pyrrolidine-2-carboxamide], the IC50 is above 1000 nM.

For `Cc1ccc2oc3ccc(C(=O)NCC(=O)N4C[C@H](OC(F)F)C[C@H]4C(=O)NCc4cc5cnccc5[nH]4)cc3c2c1` [Compound 334, (2S,4R)-N-((1H-pyrrolo[3,2-c]pyridin-2-yl)methyl)-4-(difluoromethoxy)-1-((8-methyldibenzo[b,d]furan-2-carbonyl)glycyl)pyrrolidine-2-carboxamide], the IC50 was below 100 nM.

As to `C[C@@]12C[C@@H]1N(C(=O)CNC(=O)c1ccc3c(c1)Oc1ccccc1S3)[C@H](C(=O)NCc1cc3c(s1)CNCC3)C2` [Compound 112, (1S,3S,5S)-5-methyl-2-((phenoxathiine-3-carbonyl)glycyl)-N-((4,5,6,7-tetrahydrothieno[2,3-c]pyridin-2-yl)methyl)-2-azabicyclo[3.1.0]hexane-3-carboxamide], the IC50 is below 100 nM.

Turning to `C[C@@H](NC(=O)[C@@H]1C[C@]2(C)C[C@@H]2N1C(=O)CNC(=O)c1ccc2c(c1)Oc1ccccc1S2)c1cc2cnccc2[nH]1` [Compound 130, (1S,3S,5S)-N-((R)-1-(1H-pyrrolo[3,2-c]pyridin-2-yl)ethyl)-5-methyl-2-((phenoxathiine-3-carbonyl)glycyl)-2-azabicyclo[3.1.0]hexane-3-carboxamide], the IC50 was below 100 nM.

With `Cc1ccc(Oc2cccc(C(=O)NCC(=O)N3C[C@H](OC(F)F)C[C@H]3C(=O)NCc3c(C)cc(N)nc3C)c2F)cc1` [Compound 374, (2S,4R)-N-((6-amino-2,4-dimethylpyridin-3-yl)methyl)-4-(difluoromethoxy)-1-((2-fluoro-3-(p-tolyloxy)benzoyl)glycyl) pyrrolidine-2-carboxamide], the IC50 was above 1000 nM.

`O=C(NCC(=O)N1C[C@H](OC(F)F)C[C@H]1C(=O)NCc1cc2cnccc2[nH]1)c1cc(-c2ccccc2)cs1` [Compound 379, (2S,4R)-N-((1H-pyrrolo[3,2-c]pyridin-2-yl)methyl)-4-(difluoromethoxy)-1-((4-phenylthiophene-2-carbonyl)glycyl)pyrrolidine-2-carboxamide]: the IC50 was below 100 nM.

With `O=C(NCC(=O)N1C[C@H](OC(F)F)C[C@H]1C(=O)NCc1ccc2c(c1)CNCC2)c1ccc2c(c1)Oc1ccccc1S2` [Compound 226, (2S,4R)-4-(difluoromethoxy)-1-((phenoxathiine-3-carbonyl)glycyl)-N-((1,2,3,4-tetrahydroisoquinolin-7-yl)methyl)pyrrolidine-2-carboxamide], the IC50 is above 1000 nM.

`O=C(NCC(=O)N1CC2(C[C@H]1C(=O)NCc1cc3cncnc3[nH]1)OCCO2)c1ccc2c(c1)-c1ccccc1C2(F)F` [Compound 16, (S)-N-((7H-pyrrolo[2,3-d]pyrimidin-6-yl)methyl)-7-((9,9-difluoro-9H-fluorene-3-carbonyl)glycyl)-1,4-dioxa-7-azaspiro[4.4]nonane-8-carboxamide]: the IC50 was above 1000 nM.

Regarding `O=C(NCC(=O)N1C[C@H](OC(F)F)C[C@H]1C(=O)NCc1cc2cnccc2[nH]1)c1ccc(F)c(Oc2ccsc2)c1` [Compound 317, (2S,4R)-4-(difluoromethoxy)-1-[2-[[4-fluoro-3-(3-thienyloxy)benzoyl]amino]acetyl]-N-(1H-pyrrolo[3,2-c]pyridin-2-ylmethyl)pyrrolidine-2-carboxamide], the IC50 was below 100 nM.

For `C[C@@H](NC(=O)[C@@H]1C[C@@H](OC(F)(F)F)CN1C(=O)CNC(=O)c1ccc2c(c1)Oc1ccccc1S2)c1cc2cnccc2[nH]1` [Compound 251, (2S,4R)-N-((R)-1-(1H-pyrrolo[3,2-c]pyridin-2-yl)ethyl)-1-((phenoxathiine-3-carbonyl)glycyl)-4-(trifluoromethoxy)pyrrolidine-2-carboxamide], the IC50 is below 100 nM.

Regarding `O=C(NCC(=O)N1CC2(C[C@H]1C(=O)NCc1cc3cnccc3[nH]1)OCCO2)c1ccc2c(c1)Oc1ccccc1S2` [Compound 4, (S)-N-((1H-pyrrolo[3,2-c]pyridin-2-yl)methyl)-7-((phenoxathiine-3-carbonyl)glycyl)-1,4-dioxa-7-azaspiro[4.4]nonane-8-carboxamide], the IC50 is below 100 nM.

Turning to `COc1cccc(C(=O)NCC(=O)N2C[C@H](OC(F)F)C[C@H]2C(=O)NCc2cc3cnccc3[nH]2)c1` [Compound 382, (2S,4R)-N-((1H-pyrrolo[3,2-c]pyridin-2-yl)methyl)-4-(difluoromethoxy)-1-((3-methoxybenzoyl)glycyl) pyrrolidine-2-carboxamide], the IC50 fell in the range of 100 to 1000 nM.

Turning to `C[C@@H](NC(=O)[C@@H]1C[C@]2(C)C[C@@H]2N1C(=O)CNC(=O)c1ccc2c(c1)Oc1ccccc1S2)c1cc2cnccc2s1` [Compound 231, (1S,3S,5S)-5-methyl-2-((phenoxathiine-3-carbonyl)glycyl)-N-((R)-1-(thieno[3,2-c]pyridin-2-yl)ethyl)-2-azabicyclo[3.1.0]hexane-3-carboxamide], the IC50 is below 100 nM.

In the case of `Cc1ccc(Oc2cccc(C(=O)NCC(=O)N3C[C@H](OC(F)F)C[C@H]3C(=O)NCc3cc4cnccc4[nH]3)c2)c(C)c1` [Compound 298, (2S,4R)-N-((1H-pyrrolo[3,2-c]pyridin-2-yl)methyl)-4-(difluoromethoxy)-1-((3-(2,4-dimethylphenoxy)benzoyl)glycyl) pyrrolidine-2-carboxamide], the IC50 was below 100 nM.

Take `Cc1cc(F)ccc1Oc1cccc(C(=O)NCC(=O)N2C[C@H](OC(F)F)C[C@H]2C(=O)NCc2cc3cnccc3[nH]2)c1` [Compound 274, (2S,4R)-N-((1H-pyrrolo[3,2-c]pyridin-2-yl)methyl)-4-(difluoromethoxy)-1-((3-(4-fluoro-2-methylphenoxy)benzoyl)glycyl) pyrrolidine-2-carboxamide]: the IC50 was below 100 nM.

`C[C@@]12C[C@@H]1N(C(=O)CNC(=O)c1ccc3c(c1)Oc1ccccc1S3)[C@H](C(=O)NCc1cccc(B(O)O)c1)C2` [Compound 250, (3-(((1S,3S,5S)-5-methyl-2-((phenoxathiine-3-carbonyl)glycyl)-2-azabicyclo[3.1.0]hexane-3-carboxamido)methyl)phenyl) boronic acid]: the IC50 is above 1000 nM.

Consider `Cc1ccc(Cc2cccc(C(=O)NCC(=O)N3C[C@H](OC(F)F)C[C@H]3C(=O)NCc3cc4cnccc4[nH]3)c2)c(F)c1` [Compound 305, (2S,4R)-N-((1H-pyrrolo[3,2-c]pyridin-2-yl)methyl)-4-(difluoromethoxy)-1-((3-(2-fluoro-4-methylbenzyl)benzoyl)glycyl)pyrrolidine-2-carboxamide], for which the IC50 is below 100 nM.

For the molecule `O=C(NCC(=O)N1C[C@H](OC(F)F)C[C@H]1C(=O)NCc1cc2cnccn2c1)c1cccc(Oc2ccccc2)c1` [Compound 270, (2S,4R)-4-(difluoromethoxy)-1-((3-phenoxybenzoyl)glycyl)-N-(pyrrolo[1,2-a]pyrazin-7-ylmethyl)pyrrolidine-2-carboxamide], the IC50 was below 100 nM.

With `Cc1ccc(Oc2ccc(C(=O)NCC(=O)N3C[C@H](OC(F)F)C[C@H]3C(=O)NCc3cc4cnccc4[nH]3)cc2)c(F)c1` [Compound 316, (2S,4R)-N-((1H-pyrrolo[3,2-c]pyridin-2-yl)methyl)-4-(difluoromethoxy)-1-((4-(2-fluoro-4-methylphenoxy)benzoyl)glycyl) pyrrolidine-2-carboxamide], the IC50 is below 100 nM.

Consider `O=C(NCC(=O)N1C[C@H](OC(F)F)C[C@H]1C(=O)NCc1cnc2[nH]ccc2c1)c1ccc2c(c1)Oc1ccccc1S2` [Compound 247], for which the IC50 was 100 to 1000 nM.

Regarding `O=C(NCC(=O)N1CC2(C[C@H]1C(=O)NCc1cc3cncc(Cl)c3[nH]1)OCCO2)c1ccc2c(c1)Oc1ccccc1S2` [Compound 53, (S)-N-((7-chloro-1H-pyrrolo[3,2-c]pyridin-2-yl)methyl)-7-((phenoxathiine-3-carbonyl)glycyl)-1,4-dioxa-7-azaspiro[4.4]nonane-8-carboxamide], the IC50 is above 1000 nM.

For the molecule `C[C@@H](NC(=O)[C@@H]1C[C@@H](OC(F)F)CN1C(=O)CNC(=O)c1ccc(Oc2ccccc2)cc1)c1cc2cnccc2s1` [Compound 209, (2S,4R)-4-(difluoromethoxy)-1-((4-phenoxybenzoyl)glycyl)-N-((R)-1-(thieno[3,2-c]pyridin-2-yl)ethyl)pyrrolidine-2-carboxamide], the IC50 is 100 to 1000 nM.
